Assay results published in PMC6104039 (Nature Communications, 2018).
Several values for one entry are separate records, joined by “and”; a condition that tells them apart may be missing. Equal entries are not always repeated. Entries after “also recorded” stand apart in the source; their conditions may differ.

Key:
HEK293 cells = assay: Detection of the phosphate of the compound in cultured cells, LC-MS/MS; assay type: in vitro ADME; conditions: 1 µM, 2 h
Protocol: (§1) LC-MS/MS was performed on a TSQ Quantum Access triple quadrupole mass spectrometer in positive ion mode, coupled to an Accela UPLC system (Thermo Scientific). Extracts (20 μL) were separated on a 2 × 100 mm Eclipse XDB-C8 column with 1.8 μm particle size (Agilent Technologies), using a 7.5 min binary HPLC gradient: 0 min, 70% B ([…]); 1.5 min, 70% B; 3.5 min, 95% B; 4 min, 95% B; 4.5 min, 70% B; 7.5 min 70% B. Mobile phase A: 2 mM ammonium formate/1% formic acid in water; mobile phase B: 1 mM ammonium formate/1% formic acid in methanol. The flow rate was 0.4 mL min^−1, increasing to 0.5 mL min^−1 from 5–7 min, and column oven 30 °C. […] Visualisation and quantification of peaks was performed using Thermo Fisher’s XCalibur software v2.2.
(§2) Supplementary Figure 8. P053 is not phosphorylated in situ or in vivo. (a-b) HEK293 cells […]
(§3) LC-MS/MS analysis. Chromatograms for (a) FTY720 and its phosphate, and (b) P053 and its putative phosphate are shown. […]
(§4) mg/kg/day for 6 weeks, corresponding to a plasma concentration of ~300 nM. No peak is […]
(§5) (1 picture or pasted object on this page, not shown here)

[1] = Detection of P053-phosphate in plasma of dosed mice, LC-MS/MS; assay type: in vivo; conditions: 5 mg/kg/day for 6 weeks
Protocol: as §1, §2, §3, §4, §5

gastrocnemius muscle = assay: Targeted analysis of ceramide, SM and HexCer in gastrocnemius muscle; assay type: in vivo, mice; parameters: HexCer 18:1/22:0 content of gastrocnemius muscle / SM 34:1 content of gastrocnemius muscle / SM 34:2 content of gastrocnemius muscle / SM 36:2 content of gastrocnemius muscle / SM 36:1 content of gastrocnemius muscle / SM 40:1 content of gastrocnemius muscle / SM 42:2 content of gastrocnemius muscle / SM 42:1 content of gastrocnemius muscle / Cer 18:1/16:0 content of gastrocnemius muscle / Cer 18:1/18:0 content of gastrocnemius muscle / Cer 18:2/18:0 content of gastrocnemius muscle / Cer 18:0/18:0 content of gastrocnemius muscle / Cer 18:1/22:0 content of gastrocnemius muscle / Cer 18:1/24:1 content of gastrocnemius muscle / Cer 18:0/24:1 content of gastrocnemius muscle / Cer 18:1/24:0 content of gastrocnemius muscle / HexCer 18:1/16:0 content of gastrocnemius muscle / HexCer 18:1/18:0 content of gastrocnemius muscle / HexCer 18:1/20:0 content of gastrocnemius muscle: unit not given beside the values

Q: Which “phosphate of the compound in cultured HEK293 cells” value (HEK293 cells) does the source give for `C[C@@](N)(CO)CCc1ccc(OCc2ccc(Cl)c(Cl)c2)cc1` [P053, (S)-2-amino-4-(4-(3,4-dichlorobenzyloxy)phenyl)-2-methylbutan-1-ol] here?
A: only background signal; also recorded: not detected

Q: And the “phosphate of the compound in plasma of mice” value [1]?
A: only background signal is detected; also recorded: not detected

Q: What about the “C18 ceramide, C18 dihydroceramide and 18:2/18:0 ceramide in gastrocnemius muscle” value (gastrocnemius muscle; 5 mg/kg daily) of the same molecule?
A: significant reductions

Q: And the “Cer 18:0/18:0 content of gastrocnemius muscle” value (gastrocnemius muscle; Chow + P053, individual mice)?
A: 6.716 and 7.477 and 5.961 and 6.052 and 7.077 and 6.063 and 5.232 and 5.747 and 5.304 and 6.401

Q: And the “Cer 18:0/24:1 content of gastrocnemius muscle” value (gastrocnemius muscle; Chow + P053, individual mice)?
A: 3.2091 and 2.598 and 3.667 and 1.8279 and 1.954 and 2.772 and 2.055 and 2.027 and 2.139 and 3.699

Q: What about the “Cer 18:1/16:0 content of gastrocnemius muscle” value (gastrocnemius muscle; Chow + P053, individual mice) of the same molecule?
A: 0.3484 and 0.3091 and 0.3437 and 0.3068 and 0.4605 and 0.637 and 0.2188 and 0.4293 and 0.2277 and 0.4584

Q: And the “Cer 18:1/18:0 content of gastrocnemius muscle” value (gastrocnemius muscle; Chow + P053, individual mice)?
A: 20.203 and 22.2043 and 20.4893 and 19.2549 and 21.0178 and 15.4813 and 13.2288 and 14.0008 and 17.6182 and 17.1195

Q: And the “Cer 18:1/20:0 content of gastrocnemius muscle” value (gastrocnemius muscle; Chow + P053, individual mice)?
A: 0.4999 and 0.7758 and 0.6909 and 0.4845 and 0.671 and 0.9486 and 0.5576 and 0.508 and 0.7146 and 0.7451

Q: What about the “Cer 18:1/22:0 content of gastrocnemius muscle” value (gastrocnemius muscle; Chow + P053, individual mice) of the same molecule?
A: 2.697 and 2.247 and 2.924 and 2.061 and 2.474 and 3.27 and 1.828 and 2.047 and 1.902 and 3.1173

Q: What about the “Cer 18:1/24:0 content of gastrocnemius muscle” value (gastrocnemius muscle; Chow + P053, individual mice) of the same molecule?
A: 7.198 and 5.637 and 7.43 and 4.359 and 4.709 and 6.914 and 4.421 and 4.245 and 5.265 and 6.526

Q: And the “Cer 18:1/24:1 content of gastrocnemius muscle” value (gastrocnemius muscle; Chow + P053, individual mice)?
A: 11.8242 and 9.129 and 9.681 and 7.066 and 8.758 and 11.6384 and 7.885 and 7.128 and 7.643 and 10.6448

Q: And the “Cer 18:2/18:0 content of gastrocnemius muscle” value (gastrocnemius muscle; Chow + P053, individual mice)?
A: 0.4658 and 0.5512 and 0.4225 and 0.4514 and 0.5661 and 0.3835 and 0.2283 and 0.4455 and 0.4165 and 0.4597

Q: And the “HexCer 18:1/16:0 content of gastrocnemius muscle” value (gastrocnemius muscle; Chow + P053, individual mice)?
A: 0.2006 and 0.1094 and 0.05472 and 0.08462 and 0.1035 and 0.3016 and 0.02008 and 0.2899 and 0.1794 and 0.1526

Q: And the “HexCer 18:1/18:0 content of gastrocnemius muscle” value (gastrocnemius muscle; Chow + P053, individual mice)?
A: 2.77 and 1.138 and 0.685 and 0.5505 and 1.7658 and 1.01 and 1.02 and 3.397 and 2.789 and 0.3088

Q: And the “HexCer 18:1/20:0 content of gastrocnemius muscle” value (gastrocnemius muscle; Chow + P053, individual mice)?
A: 4.98 and 2.2562 and 1.185 and 0.63 and 2.136 and 1.46 and 2.186 and 5.934 and 4.2225 and 0.5191

Q: And the “HexCer 18:1/22:0 content of gastrocnemius muscle” value (gastrocnemius muscle; Chow + P053, individual mice)?
A: 28.6994 and 10.5255 and 7.341 and 3.05 and 12.9786 and 10.4072 and 8.903 and 30.0855 and 20.1916 and 3.513

Q: And the “HexCer 18:1/22:1 content of gastrocnemius muscle” value (gastrocnemius muscle; Chow + P053, individual mice)?
A: 2.443 and 0.8441 and 0.5964 and 0.2415 and 0.9642 and 0.3777 and 0.6547 and 2.558 and 1.9817 and 0.2068

Q: And the “HexCer 18:1/24:0 content of gastrocnemius muscle” value (gastrocnemius muscle; Chow + P053, individual mice)?
A: 131.55 and 47.7053 and 35.5956 and 20.727 and 57.5213 and 45.8559 and 36.9456 and 110.769 and 86.5459 and 16.7978

Q: What about the “HexCer 18:1/24:1 content of gastrocnemius muscle” value (gastrocnemius muscle; Chow + P053, individual mice) of the same molecule?
A: 55.5818 and 22.7923 and 17.8764 and 8.062 and 22.9046 and 20.0825 and 17.0776 and 61.9168 and 40.6919 and 8.475

Q: And the “SM 34:1 content of gastrocnemius muscle” value (gastrocnemius muscle; Chow + P053, individual mice)?
A: 55.2092 and 65.2319 and 37.406 and 53.6606 and 49.036 and 73.0423 and 41.7651 and 81.6186 and 53.5156 and 54.7372

Q: And the “SM 34:2 content of gastrocnemius muscle” value (gastrocnemius muscle; Chow + P053, individual mice)?
A: 2.561 and 2.363 and 1.4133 and 1.332 and 1.809 and 2.655 and 1.68 and 2.4957 and 1.926 and 1.425

Q: What about the “SM 36:1 content of gastrocnemius muscle” value (gastrocnemius muscle; Chow + P053, individual mice) of the same molecule?
A: 242.303 and 230.3 and 206.587 and 243.389 and 210.049 and 199.927 and 174.992 and 270.736 and 215.295 and 156.154

Q: And the “SM 36:2 content of gastrocnemius muscle” value (gastrocnemius muscle; Chow + P053, individual mice)?
A: 3.724 and 3.017 and 3.098 and 3.4 and 2.856 and 3.2428 and 2.648 and 4.315 and 4.019 and 3.053

Q: And the “SM 40:1 content of gastrocnemius muscle” value (gastrocnemius muscle; Chow + P053, individual mice)?
A: 97.5537 and 51.1596 and 53.7207 and 21.6057 and 37.8369 and 48.3173 and 39.3705 and 88.0525 and 69.3339 and 48.817

Q: And the “SM 42:1 content of gastrocnemius muscle” value (gastrocnemius muscle; Chow + P053, individual mice)?
A: 88.2897 and 52.3856 and 29.1894 and 16.6817 and 42.3452 and 43.7529 and 25.0289 and 89.171 and 54.8125 and 29.4411

Q: And the “SM 42:2 content of gastrocnemius muscle” value (gastrocnemius muscle; Chow + P053, individual mice)?
A: 288.299 and 175.495 and 168.331 and 87.7791 and 166.49 and 221.175 and 113.727 and 338.716 and 212.277 and 185.512
